Assay results reported in patent publication US20090053338A1, “Method for the preparation of phytoprogestogenic extracts from rhizoma ligusticum chuanxiong and uses thereof” (priority 2003, published 2009).
Each block holds one compound with its values, some of them ahead of it.

Key:
[1] = tested on: patients with acute cerebral infarction; settings: cited from earlier work
[2] = target: T1, human progesterone receptor (PR-B) (Homo sapiens, UniProt P06401); assay: cell-based progesterone reporter gene assay (PR-B + PRE2-TATA-LUC luciferase) in HeLa cells; settings: peak activity at 10 μM
T1 construct: DNA encoding the full length human progesterone receptor (PR-B); expressed in transfected cells; host or cells: HeLa cells
T1 sequence (P06401 1-933): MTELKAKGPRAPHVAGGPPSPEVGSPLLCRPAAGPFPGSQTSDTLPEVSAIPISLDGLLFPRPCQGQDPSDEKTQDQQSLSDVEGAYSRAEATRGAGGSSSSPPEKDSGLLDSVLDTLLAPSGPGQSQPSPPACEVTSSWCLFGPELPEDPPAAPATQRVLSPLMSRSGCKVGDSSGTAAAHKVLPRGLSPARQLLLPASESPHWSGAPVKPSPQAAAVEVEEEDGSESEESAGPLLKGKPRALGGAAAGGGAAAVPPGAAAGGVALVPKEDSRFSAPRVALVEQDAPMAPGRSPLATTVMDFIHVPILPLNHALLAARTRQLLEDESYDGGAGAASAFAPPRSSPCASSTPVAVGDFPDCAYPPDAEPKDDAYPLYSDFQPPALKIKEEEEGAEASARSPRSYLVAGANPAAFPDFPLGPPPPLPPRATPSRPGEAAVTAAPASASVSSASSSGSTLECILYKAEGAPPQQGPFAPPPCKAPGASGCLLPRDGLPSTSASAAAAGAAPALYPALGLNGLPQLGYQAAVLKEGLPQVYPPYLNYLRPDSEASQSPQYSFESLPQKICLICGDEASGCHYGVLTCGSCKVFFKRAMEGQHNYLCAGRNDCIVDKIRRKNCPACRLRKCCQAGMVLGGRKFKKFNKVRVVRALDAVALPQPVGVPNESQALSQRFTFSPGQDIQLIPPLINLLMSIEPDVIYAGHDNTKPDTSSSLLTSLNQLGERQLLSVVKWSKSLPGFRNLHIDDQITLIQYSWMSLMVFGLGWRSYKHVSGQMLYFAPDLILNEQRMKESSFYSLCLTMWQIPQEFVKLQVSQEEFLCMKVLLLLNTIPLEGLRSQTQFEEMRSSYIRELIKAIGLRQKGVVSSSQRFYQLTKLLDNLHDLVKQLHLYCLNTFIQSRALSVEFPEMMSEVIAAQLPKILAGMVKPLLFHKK
Text: In the progestogen receptor assay of the invention, HeLa cells grown in 24-well microtiter plates were transiently co-transfected with two plasmids using lipofectamine. The first plasmid consisted of DNA encoding the full length human progesterone receptor (PR-B), and the second a progesterone reporter gene (PRE2-TATA-LUC) comprising a luciferase reporter gene driven by two copies of the progesterone response element from the aminotransferase gene. […] Replicate wells were exposed to vehicle only (ethanol) and used as negative controls. After the period of incubation, cells were rinsed with PBS buffer, lysis buffer (Promega Corp) was added, and cell lysates collected for measurement of luciferase activity. Progestogenic activity of the ligands was expressed as fold-increase in luciferase activity compared with control cells exposed to vehicle only. All data points were in triplicate. […] To begin the search for phyto-progestogens in Traditional Chinese herbal medicines, The Pharmacopoeia of the People's Republic of China (1997) was consulted and 13 herbs reported to have “uterotonic activity” were selected for screening. […] The herbal residues were re-extracted a second time with the same solvent for 2-3 hours. […] Dried extracts were weighed and re-suspended in 100% ethanol or methanol to a concentration 50 mg/ml.

[3] = tested on: male Sprague-Dawley rats
Experimental: Sprague-Dawley rats were fasted overnight. Two mls of L.C. (2 g), MPA (10 mg) and vehicle (60% Ethanol) were orally fed to male rats using gavage tubes. Serum samples were collected from the tail vein at indicated time points, before and after L.C. administration. Bioactive progestogens were extracted from serum and tested for progestogenic activity using our receptor-based bioassay. Each data point is the Mean±SEM of samples obtained from 6 different rats. Bars indicate progestogenic activity of original MPA and L.C. extract in-vitro. Progestogenic activity is expressed as fold increase compared to cells exposed to vehicle only.
To determine the pharmacokinetics and bioequivalence of LC, we measured the progestogenic effect of rat serum sampled at defined time points after oral doses of LC (2 g/2 ml), MPA (10 mg/2 ml), and vehicle only (2 ml 60% ethanol). Serum samples were extracted and progesterone effect measured as in Example 12.

[4] = tested on: male Sprague-Dawley rats; settings: subcutaneous; MPA 10 mg
Text: Each data point is the Mean±SEM of samples obtained from 6 different rats. Bars indicate progestogenic activity of original MPA and L.C. extract in-vitro. Progestogenic activity is expressed as fold increase compared to cells exposed to vehicle only.

[5] = tested on: subjects with transient ischemic attack; settings: cited from earlier work

Compound: dextran 40
total therapeutic efficacy rate [1]: 62.8%

increase in hormonal activity over controls exposed to vehicle only at peak activity [2]: 300 fold
Compound: CC(=O)O[C@]1(C(C)=O)CC[C@H]2[C@@H]3C=C(C)C4=CC(=O)CC[C@]4(C)[C@H]3CC[C@@]21C [megesterol acetate]

Compound: CC(=O)O[C@]1(C(C)=O)CC[C@H]2[C@@H]3C[C@H](C)C4=CC(=O)CC[C@]4(C)[C@H]3CC[C@@]21C [MPA, 6α-methyl-17α-hydroxy-progesterone acetate]
maintenance of peak / high levels of progestogenic effect ([3]; male, Sprague-Dawley, rat, in vivo, po): maintained throughout the 24 hour of sampling | peak progesterone activity in words ([3]; oral): comparable to that observed with saturating doses of progesterone in-vitro | serum activity versus baseline of rats administered vehicle only ([3]; oral, MPA 10 mg/2 ml): about 5 fold | peak progestogenic activity versus serum from rats administered vehicle only [4]: about 5 fold

increase in hormonal activity over controls exposed to vehicle only at peak activity [2]: 300 fold
Compound: CC(=O)[C@H]1CC[C@H]2[C@@H]3CCC4=CC(=O)CC[C@]4(C)[C@H]3CC[C@]12C [progesterone]

Compound: CC(=O)Oc1ccccc1C(=O)O [aspirin]
total effective rate [5]: 61.7%
